From patent US4962109A, “Insecticidally and acaricidally active pyrimidine esters and intermediates therefor” (Imperial Chemical Industries PLC, priority 1985, dated 1990)

Assays:
Type in all cases: in vivo
[1] = system: Spodoptera exigua (lesser army worm - larvae); experiment: Residual test on lesser army worm larvae (SP), Cotton leaf, mortality; settings: 48 h, 500 ppm, residual, 2 days, read-out: SP grading of mortality
Method: (§1) The activity of the Product was determined using a variety of insect pests. The Product was used in the form of liquid preparations containing 500, 250 or 100 parts per million (ppm) by weight of the Product. The preparations were made by dissolving the Product in acetone and diluting the solutions with water containing 0.01% by weight of a wetting agent sold under the trade name "LISSAPOL" NX until the liquid preparations contained the required concentration of the Product. "Lissapol" is a Registered Trade Mark.
(§2) The test procedure adopted with regard to each pest was basically the same and comprised supporting a number of the pests on a medium which was usually a host plant or a foodstuff on which the pests feed, and treating either or both the pests and the medium with the preparations. The mortality of the pests was then assessed at periods usually varying from one to three days after the treatment.
(§3) The results of the tests are given in Table III for each of the Products, at the rate in parts per million given in the second column as a grading of mortality designated as A, B or C wherein A indicates 80-100% mortality or knockdown, B indicates 50-79% mortality or knockdown and C indicates less than 50% mortality or knockdown.
(lesser army worm - larvae)

[2] = system: Nephotettix cincticeps (green leaf hopper - nymphs); experiment: Contact test on green leaf hopper nymphs (NC), Rice plant, mortality; settings: 48 h, 500 ppm, contact, 2 days, read-out: NC grading of mortality
Method: as §1, §2, §3
NC Nephotettix cincticeps

[3] = system: Tetranychus urticae (spider mites - ova); experiment: Contact test on spider mites - ova (TUe), French bean leaf, mortality; settings: 144 h, 500 ppm, contact, 6 days, read-out: TUe grading of mortality
Method: as §1, §2, §3

[4] = system: Diabrotica balteata (rootworm larvae); experiment: Residual test on rootworm larvae (DB), Filter paper/maize seed, mortality; settings: 48 h, 500 ppm, residual, 2 days, read-out: DB grading of mortality
Method: as §1, §2, §3

Myzus persicae (aphids) = experiment: Contact test on aphids (MP), Chinese Cabbage leaf, mortality; settings: 72 h, 500 ppm, contact, 3 days, read-out: MP grading of mortality
Method: as §1, §2, §3

[5] = system: Musca domestica (houseflies - adults); experiment: Knockdown test on houseflies - adults (MD/KD), Cotton wool/sugar; settings: 500 ppm, 4 hours, read-out: MD/KD grading of knockdown
Method: as §1, §2
In the case of the species Musca domestica (housefly), additional tests to determine the knockdown effect of the compounds were performed. PG,163
as §3

[6] = system: Blattella germanica (cockroach nymphs); experiment: Contact test on cockroach nymphs (BG/C), Plastic pot, mortality; settings: 48 h, 500 ppm, contact, 2 days, read-out: BG/C grading of mortality
Method: as §1, §2, §3
BG/C Blattella germanica

[7] = system: Musca domestica (houseflies - adults); experiment: Contact test on houseflies - adults (MD), Cotton wool/sugar, mortality; settings: 72 h, 500 ppm, contact, 3 days, read-out: MD grading of mortality
Method: as §1, §2, §3

[8] = system: Tetranychus urticae (spider mites - adult); experiment: Contact test on spider mites - adult (TUa), French bean leaf, mortality; settings: 72 h, 500 ppm, contact, 3 days, read-out: TUa grading of mortality
Method: as §1, §2, §3

[9] = system: Heliothis virescens (tobacco budworm - larvae); experiment: Residual test on tobacco budworm larvae (HV), Cotton leaf, mortality; settings: 48 h, read-out: HV grading of mortality
Method: as §1, §2, §3
(tobacco budworm - larvae)

CC(C)(C)c1ncc(C(C(=O)OCc2c(F)c(F)c(F)c(F)c2F)C(C)(C)C)cn1 (racemic) [Compound 30, 2,3,4,5,6-pentafluorobenzyl (RS)-2-[2-(1,1-dimethylethyl)pyrimidin-5-yl]-3,3-dimethylbutanoate]
80 to 100%: mortality at 500 ppm [1] | mortality at 500 ppm [2] | mortality at 500 ppm [4] | mortality at 500 ppm (Myzus persicae (aphids)) | pest or weed control at 500 ppm [5] | mortality at 500 ppm [7] | mortality at 500 ppm [8] | mortality at 500 ppm [9]
< 50%: mortality at 500 ppm [3] | mortality at 500 ppm [6]

CC(C)(C)c1ncc([C@H](C(=O)O[C@H](c2cccc(Oc3ccccc3)n2)C(F)(F)F)C(C)(C)C)cn1 (racemic) [Compound 32, (RS)-1-(6-phenoxypyrid-2-yl)-2,2,2-trifluoroethyl (RS)-2-[2-(1,1-dimethylethyl)pyrimidin-5-yl]-3,3-dimethylbutanoate]
80 to 100%: mortality at 500 ppm [1] | mortality at 500 ppm [2] | mortality at 500 ppm [4] | mortality at 500 ppm (Myzus persicae (aphids)) | pest or weed control at 500 ppm [5] | mortality at 500 ppm [7] | mortality at 500 ppm [8] | mortality at 500 ppm [9]
50 to 79%: mortality at 500 ppm [3]
< 50%: mortality at 500 ppm [6]

COCc1c(F)c(F)c(COC(=O)C(c2cnc(C(F)(F)F)nc2)C(C)(C)C)c(F)c1F (racemic) [Compound 41, 2,3,5,6-tetrafluoro-4-(methoxymethyl)benzyl (RS)-2-[2-(trifluoromethyl)pyrimidin-5-yl]-3,3-dimethylbutanoate]
80 to 100%: mortality at 500 ppm [1] | mortality at 500 ppm [2] | mortality at 500 ppm (Myzus persicae (aphids)) | pest or weed control at 500 ppm [5] | mortality at 500 ppm [6] | mortality at 500 ppm [7] | mortality at 500 ppm [8] | mortality at 500 ppm [9]
< 50%: mortality at 500 ppm [3] | mortality at 500 ppm [4]

CCC(C)(C)c1ncc([C@H](C(=O)O[C@H](C)c2cccc(Oc3ccccc3)n2)C(C)(C)C)cn1 (racemic) [Compound 57, (RS)-1-(6-phenoxypyrid-2-yl)ethyl (RS)-2-[2-(1,1-dimethylpropyl)pyrimidin-5-yl]-3,3dimethylbutanoate]
< 50%: mortality at 500 ppm [3] | mortality at 500 ppm [4] | mortality at 500 ppm [6]
80 to 100%: mortality at 500 ppm [1] | mortality at 500 ppm [2] | mortality at 500 ppm (Myzus persicae (aphids)) | pest or weed control at 500 ppm [5] | mortality at 500 ppm [7] | mortality at 500 ppm [8] | mortality at 500 ppm [9]

CCC(C)(C)c1ncc(C(C(=O)OCc2c(F)c(F)c(COC)c(F)c2F)C(C)(C)C)cn1 (racemic) [Compound 61, 2,3,5,6-tetrafluoro-4-(methoxymethyl)benzyl (RS)-2-[2-(1,1-dimethylpropyl)pyrimidin-5-yl]-3,3-dimethylbutanoate]
80 to 100%: mortality at 500 ppm [1] | mortality at 500 ppm [2] | mortality at 500 ppm (Myzus persicae (aphids)) | pest or weed control at 500 ppm [5] | mortality at 500 ppm [7] | mortality at 500 ppm [8]
< 50%: mortality at 500 ppm [3] | mortality at 500 ppm [4] | mortality at 500 ppm [6] | mortality at 500 ppm [9]

CCC(C)(C)c1ncc(C(C(=O)OCc2ccc(F)c(Oc3ccccc3)c2)C(C)(C)C)cn1 (racemic) [Compound 68, 4-fluoro-3-phenoxybenzyl (RS)-2-[2-(1,1-dimethylpropyl)pyrimidin-5-yl]-3,3-dimethylbutanoate]
< 50%: mortality at 500 ppm [3] | mortality at 500 ppm [4] | pest or weed control at 500 ppm [5] | mortality at 500 ppm [6] | mortality at 500 ppm [7]
50 to 79%: mortality at 500 ppm [1]
80 to 100%: mortality at 500 ppm [2] | mortality at 500 ppm (Myzus persicae (aphids)) | mortality at 500 ppm [8] | mortality at 500 ppm [9]
